# Legend:
# Type in all cases: physicochemical
# [1] = Slurry experiment: crystal form of residue after stirring in test solvent; conditions: about 25° C., 24 hr
# Method: (§1) Powder X-ray diffraction measurement was performed using Cu-Kα radiation and measured by horizontal multipurpose X-ray diffraction system Ultima IV manufactured by Rigaku Corporation. Differential scanning calorimetric or thermogravimetric measurement was performed using DSC1/700/903-2 manufactured by Mettler Toledo or TGA/DSC1/LF/629-2 manufactured by Mettler Toledo and measured at temperature rise rate 5° C./min. Infrared spectrum was measured using Fourier transform infrared spectrophotometer Shimadzu IR Prestige-21 manufactured by Shimadzu Corporation and mounting Dura Sample IR II manufactured by Smiths Detection and by a total reflection method absorption measurement method at resolution 4 cm^−1. Raman spectroscopy was measured using RXN2 manufactured by Kaiser Optical Systems and a laser light source at excitation wavelength 1064 nm. Single crystal X-ray diffraction was measured using Cu-Kα radiation and curved imaging plate single crystal automatic X-ray structure analyzer R-AXIS RAPID II manufactured by Rigaku Corporation. Initial phase was determined by the direct method and the structure was refined by SHELXL-97. […] Intrinsic dissolution rate measurement was evaluated using a compression-molded disc of a crystal powder alone and in 20 mmoL/L sodium phosphate buffer (pH 6.8) containing 0.2% (w/v) sodium lauryl sulfate and by a rotating disc method (rotating speed: 100 rpm). Dissolution test was performed using a powder obtained by physically mixing a crystal powder and lactose in the same weight as the crystal powder and evaluated in Fasted State Simulated Intestinal Fluid (FaSSIF) at 37° C. by a rotating paddle method (paddle rotating speed: 50 rpm). The drug concentration of a solution was determined by liquid chromatography using Alliance HPLC system e2695 and detector 2789 manufactured by Waters (separation column: YMCPackPro C18 4.6 mm[…]×150 mm, temperature: 40° C., mobile phase: 20 mmol/L sodium phosphate buffer (pH 6.8)/acetonitrile=60/40 (v/v), flow rate: 1 mL/min, ultraviolet absorption detection wavelength: 240 nm). As slurry experiment, a test solvent was added to a crystal powder, the mixture was stirred at about 25° C. for 24 hr in suspension, the obtained residue was collected by filtration, and the crystal form was confirmed by powder X-ray diffraction measurement or Raman spectroscopy. In the recrystallization experiment, crystals were dissolved in ethanol, acetone, 2-propanol, tetrahydrofuran, methyl ethyl ketone, ethyl acetate, isopropyl acetate, anisole or isobutyl acetate at 55° C., filtered through a filter, allowed to cool to 5° C. or allowed to cool to 5° C. after adding n-heptane to the solution, and the crystal form of the obtained precipitate was confirmed by powder X-ray diffraction measurement or Raman spectroscopy.
# [2] = Recrystallization experiment: crystal form of precipitate from organic solvent; conditions: dissolved at 55° C., cooled to 5° C.
# Method: as §1
# [3] = Solubility in aqueous solutions after shaking each crystal at 37° C. for 24 hr; conditions: thermodynamic from solid, 24 hr shaking
# [4] = 2-propanol/n-heptane, n-heptane added
# [5] = acetone/n-heptane, n-heptane added
# [6] = anisole/n-heptane, n-heptane added
# [7] = ethanol/n-heptane, n-heptane added
# [8] = ethyl acetate/n-heptane, n-heptane added
# [9] = isobutyl acetate/n-heptane, n-heptane added
# [10] = isopropyl acetate/n-heptane, n-heptane added
# [11] = methyl ethyl ketone/n-heptane, n-heptane added
# [12] = tetrahydrofuran/n-heptane, n-heptane added
Compound,Crystal form of residue after slurry experiment ([1]; 2-propanol),Crystal form of residue after slurry experiment ([1]; acetone),Crystal form of residue after slurry experiment ([1]; anisole),Crystal form of residue after slurry experiment ([1]; distilled water),Crystal form of residue after slurry experiment ([1]; ethanol),Crystal form of residue after slurry experiment ([1]; ethyl acetate),Crystal form of residue after slurry experiment ([1]; methyl ethyl ketone),Crystal form of residue after slurry experiment ([1]; tetrahydrofuran),Crystal form of precipitate obtained by recrystallization experiment ([2]; 2-propanol),"Crystal form of precipitate obtained by recrystallization experiment [2, 4]",Crystal form of precipitate obtained by recrystallization experiment ([2]; acetone),"Crystal form of precipitate obtained by recrystallization experiment [2, 5]",Crystal form of precipitate obtained by recrystallization experiment ([2]; anisole),"Crystal form of precipitate obtained by recrystallization experiment [2, 6]",Crystal form of precipitate obtained by recrystallization experiment ([2]; ethanol),"Crystal form of precipitate obtained by recrystallization experiment [2, 7]",Crystal form of precipitate obtained by recrystallization experiment ([2]; ethyl acetate),"Crystal form of precipitate obtained by recrystallization experiment [2, 8]",Crystal form of precipitate obtained by recrystallization experiment ([2]; isobutyl acetate),Crystal form of precipitate obtained by recrystallization experiment ([2]; isopropyl acetate),further results
"CCc1cc2c(c(OCC(F)(F)F)c(C(=O)NC3CCN(C(=O)CO)CC3)n2C)c(=O)n1CC(=O)c1ccccc1.O=C(O)C[C@H](O)C(=O)O [cocrystal with L-malic acid, cocrystal of 6-ethyl-N-[1-(hydroxyacetyl)piperidin-4-yl]-1-methyl-4-oxo-5-(2-oxo-2-phenylethyl)-3-(2,2,2-trifluoroethoxy)-4,5-dihydro-1H-pyrrolo[3,2-c]pyridine-2-carboxamide and L-malic acid]",cocrystal *,cocrystal *,free form (solvate),cocrystal* + free form (solvate),cocrystal *,cocrystal* + free form (solvate),cocrystal* + free form (solvate),free form (solvate),no precipitate,cocrystal *,free form (solvate),free form (solvate),no precipitate,free form (solvate),free form (solvate),free form (solvate),free form (solvate),free form (solvate),cocrystal * + free form (solvate),free form (solvate),"Crystal form of precipitate obtained by recrystallization experiment [2, 9]: free form (solvate); Crystal form of precipitate obtained by recrystallization experiment [2, 10]: cocrystal * + free form (solvate); Crystal form of precipitate obtained by recrystallization experiment ([2]; methyl ethyl ketone): free form (solvate); Crystal form of precipitate obtained by recrystallization experiment [2, 11]: cocrystal + free form (solvate); Crystal form of precipitate obtained by recrystallization experiment ([2]; tetrahydrofuran): free form (solvate); Crystal form of precipitate obtained by recrystallization experiment [2, 12]: cocrystal + free form (solvate)"
"CCc1cc2c(c(OCC(F)(F)F)c(C(=O)NC3CCN(C(=O)CO)CC3)n2C)c(=O)n1CC(=O)c1ccccc1 [anhydrous crystal of free form, 6-ethyl-N-[1-(hydroxyacetyl)piperidin-4-yl]-1-methyl-4-oxo-5-(2-oxo-2-phenylethyl)-3-(2,2,2-trifluoroethoxy)-4,5-dihydro-1H-pyrrolo[3,2-c]pyridine-2-carboxamide, reference compound]",free form (solvate),free form (solvate),free form (solvate),free form (solvate),free form (solvate),free form (solvate),free form (solvate),free form (solvate),free form (solvate),free form (solvate),free form (solvate),free form (solvate),free form (solvate),free form (solvate),free form (solvate),free form (solvate),free form (solvate),free form (solvate),free form solvate),free form (solvate),"solubility at 24 hr ([3]; Fasted State Simulated Intestinal Fluid (FaSSIF), FaSSIF): 23.9 ± 0.1 µg/mL; solubility at 24 hr ([3]; Fed State Simulated Intestinal Fluid (FeSSIF), FeSSIF): 88.7 ± 0.7 µg/mL; solubility at 24 hr ([3]; Japanese Pharmacopoeia 1st fluid for dissolution test (JP1), simulated gastric fluid, JP1 (Japanese Pharmacopoeia 1st fluid for dissolution test)): 20.6 ± 0.4 µg/mL; solubility at 24 hr ([3]; distilled water, concentration of API): 21.5 ± 0.5 µg/mL; Crystal form of precipitate obtained by recrystallization experiment ([2]; methyl ethyl ketone): free form (solvate); Crystal form of precipitate obtained by recrystallization experiment [2, 11]: free form (solvate); Crystal form of precipitate obtained by recrystallization experiment ([2]; tetrahydrofuran): free form (solvate); Crystal form of precipitate obtained by recrystallization experiment [2, 12]: free form (solvate)"
"CCc1cc2c(c(OCC(F)(F)F)c(C(=O)NC3CCN(C(=O)CO)CC3)n2C)c(=O)n1CC(=O)c1ccccc1.O=C(O)C(O)C(O)C(=O)O [cocrystal with L-tartaric acid, cocrystal of 6-ethyl-N-[1-(hydroxyacetyl)piperidin-4-yl]-1-methyl-4-oxo-5-(2-oxo-2-phenylethyl)-3-(2,2,2-trifluoroethoxy)-4,5-dihydro-1H-pyrrolo[3,2-c]pyridine-2-carboxamide and L-tartaric acid]",cocrystal* + free form (solvate),cocrystal *,cocrystal* + free form (solvate),cocrystal* + free form (solvate),cocrystal * + free form (solvate),cocrystal* + free form (solvate),cocrystal* + free form (solvate),cocrystal* + free form (solvate),cocrystal *,cocrystal *,free form (solvate),cocrystal * + free form (solvate),no precipitate,free form (solvate),free form (solvate),free form (solvate),free form (solvate),cocrystal * + free form (solvate),cocrystal *,free form (solvate),"Crystal form of precipitate obtained by recrystallization experiment [2, 9]: cocrystal *; Crystal form of precipitate obtained by recrystallization experiment [2, 10]: cocrystal *; Crystal form of precipitate obtained by recrystallization experiment ([2]; methyl ethyl ketone): free form (solvate); Crystal form of precipitate obtained by recrystallization experiment [2, 11]: cocrystal *; Crystal form of precipitate obtained by recrystallization experiment ([2]; tetrahydrofuran): free form (solvate); Crystal form of precipitate obtained by recrystallization experiment [2, 12]: cocrystal *"

# Source: patent US12024512B2, “Cocrystal” (TAKEDA PHARMACEUTICAL COMPANY LIMITED, priority 2016, dated 2024)
